Data on 29 compounds can be found in ChEMBL document CHEMBL4364355, “New Negamycin-Based Potent Readthrough Derivative Effective against TGA-Type Nonsense Mutations” (ACS Med Chem Lett, 2019).

As a reminder, the IC50 is the concentration that gives 50% inhibition.

Assay type in all cases: cell-based
The species named for series [1] is Mus musculus. Put plainly: Induction of read through activity at premature termination codon TGA (non-sense mutation associated with DMD disease) in 27-mer DNA stretch sequence of mouse dystrophin mdx gene transfected as a plasmid by connecting with beta-galactosidase and luciferase genes in COS7 cells assessed as ratio of luciferase activity to beta-galactosidase activity at 200 uM incubated for 48 hrs by dual luciferase reporter gene assay relative to control.

In the next series the test system is COS-7. Put plainly: Cytotoxicity against African green monkey COS7 cells assessed as decrease in cell viability by WST1 assay. To be noted: Chlorocebus aethiops. (In general: Formazan colour is commonly taken as a measure of viable cells.)
Series [2] is filed under the species Mus musculus. Description: Induction of read through activity at premature termination codon TAG (non-sense mutation associated with DMD disease) in 27-mer DNA stretch sequence of mouse dystrophin mdx gene transfected as a plasmid by connecting with beta-galactosidase and luciferase genes in COS7 cells assessed as ratio of luciferase activity to beta-galactosidase activity at 200 uM incubated for 48 hrs by dual luciferase reporter gene assay relative to control. (A reporter such as luciferase makes a cellular process visible.)

Series [3] is filed under the species Mus musculus. Description: Induction of read through activity at premature termination codon TAA (non-sense mutation associated with DMD disease) in 27-mer DNA stretch sequence of mouse dystrophin mdx gene transfected as a plasmid by connecting with beta-galactosidase and luciferase genes in COS7 cells assessed as ratio of luciferase activity to beta-galactosidase activity at 200 uM incubated for 48 hrs by dual luciferase reporter gene assay relative to control.

The species entered for series [4] is Homo sapiens. Put plainly: Induction of read through activity at premature termination codon TGA in human RLuc-TP53 R213X non-sense mutation sequence transfected in COS7 cells at 200 uM incubated for 48 hrs by dual luciferase reporter gene assay relative to control.
For series [5], the species on record is Homo sapiens. Description: Induction of read through activity at premature termination codon TGA in human RLuc-LAMA2 C1546X non-sense mutation sequence transfected in COS7 cells at 200 uM incubated for 48 hrs by dual luciferase reporter gene assay relative to control.
Series [6] relates to HDQ-P1. Description: Induction of read through activity at premature termination codon TGA in human HDQ-P1 cells harboring TP53 R213X homozygous non-sense mutation sequence assessed as expression of full length p53 protein at 200 uM incubated for 72 hrs by automated capillary electrophoresis western analysis relative to vinculin expression.
Series [7] is filed under the species Mus musculus. Description: Induction of read through activity at premature termination codon TGA (non-sense mutation associated with DMD disease) in 27-mer DNA stretch sequence of mouse dystrophin mdx gene transfected as a plasmid by connecting with beta-galactosidase and luciferase genes in COS7 cells incubated for 48 hrs by dual luciferase reporter gene assay.

Series [8] is filed under the species Homo sapiens. Put plainly: Induction of read through activity at premature termination codon TGA in human RLuc-DMD R3381X non-sense mutation sequence transfected in COS7 cells at 200 uM incubated for 48 hrs by dual luciferase reporter gene assay relative to control.
The species named for series [9] is Homo sapiens. Put plainly: Induction of read through activity at premature termination codon TAG in human RLuc-TP53 Q192X non-sense mutation sequence transfected in COS7 cells at 200 uM incubated for 48 hrs by dual luciferase reporter gene assay relative to control.
The species named for series [10] is Homo sapiens. Description: Induction of read through activity at premature termination codon TGA in human RLuc-CF G542X non-sense mutation sequence transfected in COS7 cells at 200 uM incubated for 48 hrs by dual luciferase reporter gene assay relative to control.
The species entered for series [11] is Homo sapiens. Put plainly: Induction of read through activity at premature termination codon TGA in human RLuc-CF W1282X non-sense mutation sequence transfected in COS7 cells at 200 uM incubated for 48 hrs by dual luciferase reporter gene assay relative to control.
Series [12] deals with HDQ-P1. Put plainly: Induction of read through activity at premature termination codon TGA in human HDQ-P1 cells harboring TP53 R213X homozygous non-sense mutation sequence assessed as expression of full length p53 protein at 12.5 uM incubated for 72 hrs by automated capillary electrophoresis western analysis relative to vinculin expression.
In series [13] the test system is HDQ-P1. Put plainly: Induction of read through activity at premature termination codon TGA in human HDQ-P1 cells harboring TP53 R213X homozygous non-sense mutation sequence assessed as expression of full length p53 protein at 25 uM incubated for 72 hrs by automated capillary electrophoresis western analysis relative to vinculin expression.
In series [14] the test system is HDQ-P1. Description: Induction of read through activity at premature termination codon TGA in human HDQ-P1 cells harboring TP53 R213X homozygous non-sense mutation sequence assessed as expression of full length p53 protein at 50 uM incubated for 72 hrs by automated capillary electrophoresis western analysis relative to vinculin expression.
For series [15], the system named is HDQ-P1. Description: Induction of read through activity at premature termination codon TGA in human HDQ-P1 cells harboring TP53 R213X homozygous non-sense mutation sequence assessed as expression of full length p53 protein at 100 uM incubated for 72 hrs by automated capillary electrophoresis western analysis relative to vinculin expression.
Series [16] concerns HDQ-P1. Put plainly: Induction of read through activity at premature termination codon TGA in human HDQ-P1 cells harboring TP53 R213X homozygous non-sense mutation sequence at 200 uM incubated for 72 hrs by automated capillary electrophoresis western analysis relative to G418.
The species named for series [17] is Mus musculus. Put plainly: Induction of read through activity at premature termination codon TGA (non-sense mutation associated with DMD disease) in 27-mer DNA stretch sequence of mouse dystrophin mdx gene transfected as a plasmid by connecting with beta-galactosidase and luciferase genes in COS7 cells incubated for 48 hrs by dual luciferase reporter gene assay relative to (+)-negamycin.

The species entered for series [18] is Mus musculus. Description: Induction of read through activity at premature termination codon TGA (non-sense mutation associated with DMD disease) in 27-mer DNA stretch sequence of mouse dystrophin mdx gene transfected as a plasmid by connecting with beta-galactosidase and luciferase genes in COS7 cells incubated for 48 hrs by dual luciferase reporter gene assay relative to (+)-G418.

The species named for series [19] is Mus musculus. Description: Induction of read through activity at premature termination codon TGA (non-sense mutation associated with DMD disease) in 27-mer DNA stretch sequence of mouse dystrophin mdx gene transfected as a plasmid by connecting with beta-galactosidase and luciferase genes in COS7 cells incubated for 48 hrs by dual luciferase reporter gene assay relative to TGP112.

Series [20] relates to HDQ-P1. Put plainly: Cytotoxicity against human HDQ-P1 cells at 200 uM. To be noted: hdq-p1, 200 µM.

Active and inactive are the calls of the source. No cut-off for these calls is given here.

On to `CC[C@H](C)[C@H](N)C(=O)N[C@@H](CCN)CC(=O)NN(C)CC(=O)O`, for which the Ratio in the series listed under Mus musculus [1] turned out to be 1.83.

For `CN(CC(=O)O)NC(=O)C[C@H](CCN)NC(=O)[C@@H](N)CC(=O)O`, the Ratio in the series filed under Mus musculus [1] is 1.96.

Regarding `CCCCCCCCCCC[C@H](N)C(=O)N[C@@H](CCN)CC(=O)NN(C)CC(=O)O`, the 50% inhibitory concentration (IC50) with COS-7 is 68.2 µM.

For `CN(CC(=O)O)NC(=O)C[C@H](CCN)NC(=O)[C@@H](N)Cc1ccc(O)cc1`, the Ratio in the series listed under Mus musculus [1] came to 2.59.

Regarding `CN(CC(=O)O)NC(=O)C[C@H](CCN)NC(=O)[C@@H](N)CC1CCCCC1`, the Ratio in the series listed under Mus musculus [1] was determined as 5.87.

In the case of `CN(CC(=O)O)NC(=O)C[C@H](CCN)NC(=O)[C@@H](N)CC(N)=O`, the Ratio in the series filed under Mus musculus [1] is 2.21.

Turning to `CC(C)[C@H](N)C(=O)N[C@@H](CCN)CC(=O)NN(C)CC(=O)O`, the Ratio in the series filed under Mus musculus [1] was 2.

For `CN(CC(=O)O)NC(=O)C[C@@H](N)CCN`, the Ratio was 3.8 to 4.26 in the series listed under Mus musculus [1], 1.48 in the series filed under Mus musculus [2], 1.2 in the series filed under Mus musculus [3] and 7.9 with HDQ-P1 [6]. Further, the results for the Activity in the series listed under Homo sapiens [4] and in the series listed under Homo sapiens [5] were 1.95% and 1.85%, respectively.

As for `CN(CC(=O)O)NC(=O)C[C@H](CCN)NC(=O)[C@@H](N)CO`, in the series listed under Mus musculus [1], the Ratio came to 1.48.

On to `CN(CC(=O)O)NC(=O)C[C@H](CCN)NC(=O)[C@@H](N)CCC(N)=O`, for which the Ratio in the series listed under Mus musculus [1] was 1.62.

Take `CN(CC(=O)O)NC(=O)C[C@H](CCN)NC(=O)[C@@H](N)CCN`: in the series filed under Mus musculus [1], the Ratio is 3.25.

For `CCCCCCCCC[C@H](N)C(=O)N[C@@H](CCN)CC(=O)NN(C)CC(=O)O`, the Ratio is 16 to 18.3 in the series filed under Mus musculus [1]; 4.39 in the series filed under Mus musculus [2]; 2.24 in the series listed under Mus musculus [3]; 215 with HDQ-P1 [6]; 2.3 in the series with HDQ-P1 [12]; 2.4 in the series on HDQ-P1 [13]. The Ratio in the series with HDQ-P1 [14] stood at 6.7; in the series with HDQ-P1 [15] it was 48; in the series on HDQ-P1 [16], 3; in the series filed under Mus musculus [17], 10; in the series filed under Mus musculus [18], 2; in the series filed under Mus musculus [19], 4. Further, the Activity result was “Dose-dependent effect” in the series listed under Mus musculus [7]; 2.25 to 7.3% in the series filed under Homo sapiens [8]; 2.25 to 7.3% in the series filed under Homo sapiens [4]; 2.25 to 7.3% in the series filed under Homo sapiens [10]; 6.34% in the series filed under Homo sapiens [5]. The result in the series filed under Homo sapiens [9] and in the series listed under Homo sapiens [11] was inactive.

Turning to `CCCC[C@H](N)C(=O)N[C@@H](CCN)CC(=O)NN(C)CC(=O)O`, the Ratio in the series listed under Mus musculus [1] is 4.21.

In the case of `CC(C)C[C@@H](N)C(=O)N[C@@H](CCN)CC(=O)NN(C)CC(=O)O`, the Ratio in the series listed under Mus musculus [1] was found to be 1.46.

As to `C[C@H](N)C(=O)N[C@@H](CCN)CC(=O)NN(C)CC(=O)O`, in the series filed under Mus musculus [1], the Ratio turned out to be 2.4.

Consider `CN[C@@H](CC(C)C)C(=O)N[C@@H](CCN)CC(=O)NN(C)CC(=O)O`, for which the Ratio in the series listed under Mus musculus [1] amounted to 2.45.

On to `CC(C)C[C@H](N)C(=O)N[C@@H](CCN)CC(=O)NN(C)CC(=O)O`, for which the Ratio in the series listed under Mus musculus [1] amounted to 4.94.

As for `CN(CC(=O)O)NC(=O)C[C@H](N)C[C@@H](O)CN`, the Ratio is 1.47 to 2.25 in the series listed under Mus musculus [1], 1.17 in the series listed under Mus musculus [2] and 1.13 in the series listed under Mus musculus [3].

For the compound `CN(CC(=O)O)NC(=O)C[C@H](CCN)NC(=O)[C@@H](N)CCCCN`, in the series filed under Mus musculus [1], the Ratio was determined as 2.49.

For `CN(CC(=O)O)NC(=O)C[C@H](CCN)NC(=O)[C@@H](N)Cc1ccccc1`, the Ratio in the series filed under Mus musculus [1] came to 2.99.

For the compound `CN(CC(=O)O)NC(=O)C[C@H](CCN)NC(=O)[C@@H](N)CCCN`, the Ratio in the series listed under Mus musculus [1] was determined as 2.96.

Turning to `CCCCCCC[C@H](N)C(=O)N[C@@H](CCN)CC(=O)NN(C)CC(=O)O`, the Ratio amounted to 7.97 in the series filed under Mus musculus [1] and 2 in the series filed under Mus musculus [19].

Take `CC(C)CCC(=O)N[C@@H](CCN)CC(=O)NN(C)CC(=O)O`: the Ratio in the series filed under Mus musculus [1] was 2.82.

For the compound `CC(C)C[C@H](N)C(=O)N[C@@H](CCCN)CC(=O)NN(C)CC(=O)O`, the Ratio in the series listed under Mus musculus [1] turned out to be 2.3; in the series listed under Mus musculus [2], 1.3; in the series filed under Mus musculus [3] it was 1.11.

For the compound `CN(CC(=O)O)NC(=O)C[C@H](CCN)NC(=O)[C@@H](N)CCC(=O)O`, in the series listed under Mus musculus [1], the Ratio turned out to be 1.8.

`CN[C@H]1[C@H](O)[C@H](O[C@@H]2[C@@H](O)[C@H](O[C@H]3O[C@H]([C@@H](C)O)[C@@H](O)[C@H](O)[C@H]3N)[C@@H](N)C[C@H]2N)OC[C@@]1(C)O`: the Ratio was 7.43 to 7.99 in the series filed under Mus musculus [1], 7.86 in the series listed under Mus musculus [2], 4.78 in the series filed under Mus musculus [3] and 72 with HDQ-P1 [6]. For the same compound, the Activity in the series listed under Homo sapiens [8], in the series filed under Homo sapiens [4], in the series filed under Homo sapiens [9], in the series filed under Homo sapiens [10], in the series listed under Homo sapiens [11] and in the series filed under Homo sapiens [5] was 1.62 to 7.25% in each case. The Activity result with HDQ-P1 [20] is reported as “Non-Toxic”.

With `CN(CC(=O)O)NC(=O)C[C@H](CCN)NC(=O)CN`, the Ratio in the series listed under Mus musculus [1] turned out to be 2.74.

Regarding `CCCCC[C@H](N)C(=O)N[C@@H](CCN)CC(=O)NN(C)CC(=O)O`, in the series listed under Mus musculus [1], the Ratio amounted to 3.4.

`CN(CC(=O)O)NC(=O)C[C@H](CCN)NC(=O)[C@@H](N)CN`: in the series filed under Mus musculus [1], the Ratio is 3.02.
